The values below come from ChEMBL document CHEMBL5346946, “Targeting Arginine Methyltransferase PRMT5 for Cancer Therapy: Updated Progress and Novel Strategies” (J Med Chem, 2023).

Data set [1] deals with T1, Protein arginine N-methyltransferase 5 (Homo sapiens, UniProt O14744). The experiment in a line: Inhibition of PRMT5 in human U-87 MG cells assessed as suppression of sDMA level incubated for 3 days by western blot analysis. In kind it is cell-based. For orientation: A western blot detects proteins with antibodies after separation by electrophoresis.
In data set [2] the target is T2, PRMT5/MEP50 complex (Homo sapiens, UniProt O14744). Nature of the data set: Binding affinity to N-terminal 6xHis-tagged full length human PRMT5/MEP50 expressed in sf21 cells using S-Adenosyl-L-methionine as substrate assessed as dissociation constant incubated for 25 to 60 mins by liquid scintillation analysis.
For data set [3], the target named is T1, Protein arginine N-methyltransferase 5. Nature of the data set: Inhibition of PRMT5 in human NCI-H1048 cells assessed as reduction in dimethylation of SmD1/3 at 10 nM incubated for 48 hrs relative to control. In kind it is cell-based.
Data set [4] shares this target. The experiment in a line: Inhibition of PRMT5 in human NCI-H1048 cells assessed as reduction in dimethylation of SmD1/3 at 1 nM incubated for 48 hrs relative to control. In kind it is cell-based.
Data set [5] concerns NCI-H1048. The experiment in a line: Antiproliferative activity against human NCI-H1048 cells assessed as cell growth inhibition incubated for 6 days by MTT assay. In kind it is functional. Particulars: NCI-H1048, 144 h, time 6 day. For orientation: Tetrazolium dyes change colour on reduction, which living cells bring about.
The subject of data set [6] is NCI-H1048. The experiment in a line: Antitumor activity against human NCI-H1048 cells xenografted in mouse assessed as tumor growth inhibition at 10 mg/kg, po administered daily for 28 days relative to control. The class given is functional. The conditions noted are these: NCI-H1048, 672 h, time 28 day, read-out: TGI. Background: Xenograft models place foreign cells or tissue in a host animal.

Data set [7] deals with PRMT5/MEP50 complex (Homo sapiens) (UniProt O14744+Q9BQA1). The experiment in a line: Binding affinity to Full-length human PRMT5/human MEP50 assessed as association constant by SPR analysis. The class given is protein-complex assay.
In data set [8] the test system is NCI-H1048. Nature of the data set: Antitumor activity against human NCI-H1048 cells xenografted in mouse assessed as tumor growth inhibition at 10 mg/kg, po administered daily for 28 days with two cycles of 7 days of treatment followed by 7 days without treatment relative to control. In kind it is functional. The conditions noted are these: NCI-H1048, 672 h, time 28 day, read-out: TGI.

The target of data set [9] is Voltage-gated inwardly rectifying potassium channel KCNH2 (Homo sapiens, UniProt Q12809). The experiment in a line: Inhibition of hERG potassium channel in human HEK293 cells by manual patch clamp assay. The class given is toxicity, cell-based.
The subject of the next data set is MDA-MB-468. The experiment in a line: Antiproliferative activity against human MDA-MB-468 assessed as cell growth inhibition measured after 7 days by CCK-8 assay. In kind it is functional, cell-based. Particulars: MDA-MB-468, 168 h.
The subject of data set [10] is Z-138. The experiment in a line: Antiproliferative activity against human Z138 cells assessed as cell growth inhibition measured after 7 days by CCK-8 assay. The class given is functional, cell-based. Particulars: Z-138, 168 h.
For the next data set, the system named is NCI-H358. The experiment in a line: Antiproliferative activity against human NCI-H358 assessed as cell growth inhibition measured after 7 days by CCK-8 assay. The class given is functional, cell-based. The conditions noted are these: NCI-H358, 168 h.
Data set [11] addresses T1, Protein arginine N-methyltransferase 5. The experiment in a line: Inhibition of PRMT5 (unknown origin).
The test system of data set [12] is Z-138. Nature of the data set: Antitumor activity against human Z138 cells xenografted in mouse as tumor growth inhibition at 5 mg/kg, po administered twice daily relative to control. The class given is functional. Particulars: read-out: TGI.
Data set [13] addresses T1, Protein arginine N-methyltransferase 5. The experiment in a line: Inhibition of PRMT5 in human Z138 cells assessed as suppression of sDMA level. The class given is cell-based.
The subject of data set [14] is Z-138. Nature of the data set: Antiproliferative activity against human Z138 cells. The class given is functional, cell-based.
In data set [15] the test system is Z-138. The experiment in a line: Antitumor activity against human Z138 cells xenografted in mouse as tumor growth inhibition at 1.5 mg/kg, po administered twice daily relative to control. The conditions noted are these: read-out: TGI. In kind it is functional.
Data set [16] deals with Z-138. Nature of the data set: Antitumor activity against human Z138 cells xenografted in mouse as tumor growth inhibition at 15 mg/kg, po administered twice daily relative to control. The class given is functional. The conditions noted are these: read-out: TGI.
The target of data set [17] is T2, PRMT5/MEP50 complex. Nature of the data set: Inhibition of PRMT5/MEP50 (unknown origin) using histone H4 peptide as substrate preincubated for 30 mins followed by substrate addition and measured for 60 mins by AlphaScreen analysis. In kind it is protein-complex assay.
For data set [18], the system named is Z-138. The experiment in a line: Antitumor activity against human Z138 cells xenografted in CB17-SCID mouse at 50 mg/kg, po QD for 3 weeks relative to control. The class given is functional. The conditions noted are these: Z-138, 504 h, read-out: TGI.
Data set [19] has as its system Z-138. The experiment in a line: Anti-proliferative activity against human Z138 cells assessed as cell growth inhibition incubated for 8 days by Cell-Titer Glo assay. Particulars: Z-138, 192 h. The class given is functional, cell-based.
Data set [20] concerns the target T1, Protein arginine N-methyltransferase 5. The experiment in a line: Inhibition of PRMT5 in human Z138 cells assessed as decrease in sDMA modification incubated for 2 days by fluorescence based assay. The class given is cell-based.
The nature of data set [21]: Oral bioavailability in CB17-SCID mouse at 10 mg/kg incubated for 24 hrs by LC-MS/MS analysis. The class given is ADME, organism-based. The conditions noted are these: in vivo.
In data set [22] the target is T1, Protein arginine N-methyltransferase 5. The experiment in a line: Inhibition of PRMT5 in human A427 cells assessed as reduction in sDMA level incubated for 72 hrs by liquid scintillation analysis.
The nature of data set [23]: Volume of distribution at steady state in rat at 2 mg/kg, iv. The class given is ADME, organism-based. The conditions noted are these: in vivo, read-out: Vdss.
The test system of data set [24] is A-427. Nature of the data set: Antitumor activity in human A-427 harboring RBM10 I348N mutant xenografted in mouse model assessed as tumor growth inhibition at 10 mg/kg administered once daily and measured after 44 days relative to control. In kind it is functional. Particulars: A-427, 1056 h, time 44 day, read-out: TGI.
The nature of data set [25]: Clearance in rat. The conditions noted are these: in vivo. In kind it is ADME.
Data set [26] is described as follows: Oral bioavailability in rat at 10 mg/kg. In kind it is ADME, organism-based. The conditions noted are these: in vivo.
In data set [27] the test system is A-427. Nature of the data set: Antitumor activity in human A-427 harboring RBM10 I348N mutant xenografted in mouse model assessed as tumor growth inhibition at 30 mg/kg administered once daily and measured after 44 days relative to control. The class given is functional. The conditions noted are these: A-427, 1056 h, time 44 day, read-out: TGI.
Data set [28] can be described thus: In vivo inhibition of PMRT5 in mouse xenografted with human A427 cells assessed as reduction in sDMA level by ELISA (reference value: 66.4%). In kind it is functional, A-427.
Data set [29] concerns A-427. Nature of the data set: Antitumor activity in human A-427 harboring RBM10 I348N mutant xenografted in mouse model assessed as tumor growth inhibition at 3 mg/kg administered once daily and measured after 44 days relative to control. The class given is functional. Particulars: A-427, 1056 h, time 44 day, read-out: TGI.
In data set [30] the target is T2, PRMT5/MEP50 complex. Nature of the data set: Binding affinity to PRMT5/MEP50 (unknown origin) using histone H4 peptide assessed as inhibition constant preincubated for 24 hrs followed by substrate addition and measured for 2 hrs in the presence of SAM by MTase-Glo Methyl Transferase Assay. The class given is protein-complex assay.
A further data set has as its system HCT-116. Nature of the data set: Anti-proliferative activity against wild type human HCT-116 cells assessed as cell growth inhibition incubated overnight by CellTiter-Glo luminescent assay. The class given is functional, cell-based.
Data set [31] can be described thus: Anti-proliferative activity against human HCT116-MTAP null cells assessed as cell growth inhibition incubated overnight by CellTiter-Glo luminescent assay. The class given is functional, cell-based.
A short description of data set [32]: Anti-proliferative activity against human HCT116-MTAP null cells assessed as cell growth inhibition incubated for 6 days by CellTiter-Glo Luminescent Cell Viability Assay. In kind it is functional, cell-based. Particulars: 144 h.
A further data set has as its system U-87 MG. The experiment in a line: Anti-proliferative activity against human U-87 MG cells assessed as cell growth inhibition incubated for 3 days by CCK-8 assay. The class given is functional, cell-based, U-87MG ATCC. The conditions noted are these: 72 h.

T2 sequence (O14744 whole entry): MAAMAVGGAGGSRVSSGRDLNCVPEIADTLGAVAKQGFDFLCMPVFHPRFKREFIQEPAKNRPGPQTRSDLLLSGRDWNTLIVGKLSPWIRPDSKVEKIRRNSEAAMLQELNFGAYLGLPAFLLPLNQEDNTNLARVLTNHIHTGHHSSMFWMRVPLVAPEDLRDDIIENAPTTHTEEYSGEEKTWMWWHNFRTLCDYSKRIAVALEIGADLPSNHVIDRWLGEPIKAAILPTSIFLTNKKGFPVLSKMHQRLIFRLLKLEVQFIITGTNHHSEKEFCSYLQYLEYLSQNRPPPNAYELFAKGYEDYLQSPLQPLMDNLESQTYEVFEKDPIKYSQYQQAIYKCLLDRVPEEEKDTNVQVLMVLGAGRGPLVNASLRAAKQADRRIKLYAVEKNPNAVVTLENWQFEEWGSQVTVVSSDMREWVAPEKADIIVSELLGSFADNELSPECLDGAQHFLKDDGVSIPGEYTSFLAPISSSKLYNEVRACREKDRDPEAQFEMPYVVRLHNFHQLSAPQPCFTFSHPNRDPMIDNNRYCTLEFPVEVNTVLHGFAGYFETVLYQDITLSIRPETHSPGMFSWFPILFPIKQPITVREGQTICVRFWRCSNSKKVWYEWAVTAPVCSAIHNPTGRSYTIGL
T2 sequence (Q9BQA1 whole entry, further chain): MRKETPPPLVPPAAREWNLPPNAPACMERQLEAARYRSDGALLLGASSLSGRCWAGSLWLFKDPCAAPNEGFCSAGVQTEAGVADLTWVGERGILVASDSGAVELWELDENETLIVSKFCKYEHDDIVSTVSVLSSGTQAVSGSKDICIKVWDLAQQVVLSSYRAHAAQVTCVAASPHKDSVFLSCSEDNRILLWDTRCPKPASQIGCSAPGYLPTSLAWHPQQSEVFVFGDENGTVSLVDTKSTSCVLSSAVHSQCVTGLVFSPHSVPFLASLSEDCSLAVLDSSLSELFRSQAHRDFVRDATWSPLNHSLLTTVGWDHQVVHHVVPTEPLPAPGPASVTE
T1 sequence (O14744 whole entry): as the sequence (O14744 whole entry) above
Sequence of Voltage-gated inwardly rectifying potassium channel KCNH2 (Q12809 whole entry): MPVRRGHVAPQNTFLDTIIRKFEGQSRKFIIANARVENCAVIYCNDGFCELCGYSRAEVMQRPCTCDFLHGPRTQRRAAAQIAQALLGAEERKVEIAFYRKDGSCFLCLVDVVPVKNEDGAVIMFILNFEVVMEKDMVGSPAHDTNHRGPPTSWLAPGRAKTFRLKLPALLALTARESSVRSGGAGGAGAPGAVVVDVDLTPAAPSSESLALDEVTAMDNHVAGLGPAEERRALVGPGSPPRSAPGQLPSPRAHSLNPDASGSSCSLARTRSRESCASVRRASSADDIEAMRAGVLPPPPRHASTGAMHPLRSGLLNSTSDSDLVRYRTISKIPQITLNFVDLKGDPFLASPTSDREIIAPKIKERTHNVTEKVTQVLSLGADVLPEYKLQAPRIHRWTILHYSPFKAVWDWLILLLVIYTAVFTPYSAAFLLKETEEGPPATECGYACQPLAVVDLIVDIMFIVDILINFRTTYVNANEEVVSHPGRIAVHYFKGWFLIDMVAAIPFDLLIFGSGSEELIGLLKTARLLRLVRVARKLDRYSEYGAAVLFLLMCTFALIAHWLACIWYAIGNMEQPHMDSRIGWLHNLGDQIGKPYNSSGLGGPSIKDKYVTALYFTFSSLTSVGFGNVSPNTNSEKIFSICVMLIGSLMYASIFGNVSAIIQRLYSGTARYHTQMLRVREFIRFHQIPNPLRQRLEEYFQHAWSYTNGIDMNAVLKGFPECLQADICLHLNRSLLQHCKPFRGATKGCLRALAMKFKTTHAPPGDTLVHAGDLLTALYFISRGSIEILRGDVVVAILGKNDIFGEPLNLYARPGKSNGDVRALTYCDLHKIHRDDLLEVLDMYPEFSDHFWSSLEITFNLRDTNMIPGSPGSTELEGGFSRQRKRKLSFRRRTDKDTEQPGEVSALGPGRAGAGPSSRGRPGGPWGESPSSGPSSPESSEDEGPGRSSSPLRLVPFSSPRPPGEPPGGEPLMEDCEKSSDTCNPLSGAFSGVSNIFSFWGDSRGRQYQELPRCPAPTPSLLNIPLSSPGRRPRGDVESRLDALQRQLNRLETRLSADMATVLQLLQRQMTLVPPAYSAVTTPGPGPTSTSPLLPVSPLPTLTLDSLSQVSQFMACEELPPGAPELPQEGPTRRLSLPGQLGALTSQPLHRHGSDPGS

As a reminder, the IC50 is the concentration that inhibits the measured activity by half. Take `Nc1ncnc2c1ccn2[C@@H]1O[C@H]([C@@H]2OCc3cc(Cl)ccc32)[C@@H](O)[C@H]1O`: the IC50 in [1] stood at 120 nM.

As usually defined, the Kd is the equilibrium constant for the complex coming apart. For the compound `Nc1ncnc2c1ccn2[C@@H]1O[C@H]([C@H](O)c2ccc(Cl)c(F)c2)[C@@H](O)[C@H]1O`, the Kd on PRMT5/MEP50 complex [2] is 0.241 nM.

Broadly, the inhibition is the share of the control response that was lost under treatment. For orientation: GI50 means the concentration giving 50% growth inhibition. In the case of `Nc1nc2cc(CC[C@H]3C[C@@H](n4ccc5c(N)ncnc54)[C@H](O)[C@@H]3O)ccc2cc1Br` [ONAMETOSTAT], the inhibition in data set [3] is 80%; in data set [4], more than 50%. Moreover, the GI50 in the data set with NCI-H1048 [5] turned out to be 1.3 nM. The inhibition in vivo at 10 mg/kg was 77% in the data set with NCI-H1048 [6] and 67% with NCI-H1048 [8]. Further, the Ka in data set [7] was 6.3 10^5/M/s.

The compound `CC(=O)N1CCC(Nc2cc3c(cn2)C2(CC2)CN(C[C@H](O)CN2CCc4ccccc4C2)C3=O)CC1` returned an IC50 in data set [9] of 5.2 µM.

Regarding `CC(=O)N1CC2(CC(Nc3cc4c(cn3)C3(CC3)CN(C[C@H](O)CN3CCc5ccccc5C3)C4=O)C2)C1`, the IC50 in data set [9] is 15.1 µM; with MDA-MB-468 it was 7.4 nM; in the data set with Z-138 [10], 2.2 nM; in the data set on NCI-H358, 5 nM.

Regarding `CCN1CCN(C[C@@H](O)[C@@H]2Cc3ccccc3CN2)C(=O)c2ccc(C(=O)N3CCC4(CC3)CC(OC)C4)cc21`, the IC50 in data set [11] came to 4.2 nM; in [13] it was 1.4 nM; in the data set on Z-138 [14], 2.2 nM. The inhibition in vivo at 5 mg/kg in the data set on Z-138 [12] came out at 47.8%. Also, the inhibition in vivo at 1.5 mg/kg with Z-138 [15] was found to be 36%. The inhibition in vivo at 15 mg/kg in the data set on Z-138 [16] worked out at 112%.

What is called bioavailability is the share of a dose that reaches the circulation, judged against a reference dose that is usually intravenous. Read a high bioavailability as good availability. Consider `CC1(C)CN(C[C@@H](O)[C@@H]2Cc3ccccc3CN2)C(=O)c2ccc(C(=O)N3CCC4(CC3)CC4)cc21`, for which the IC50 against PRMT5/MEP50 complex [17] worked out at 2.8 nM; with Z-138 [19] it was 0.3 nM; in [20], 0.8 nM. In the data set with Z-138 [18], the inhibition in vivo at 50 mg/kg was 93.2%. This compound also returned a bioavailability in data set [21] of 46.2%.

Broadly, the clearance is a measure of how efficiently the substance is removed, as volume per time. Read a high clearance as a high capacity for elimination. `Cc1ncnc2c1ccn2[C@@H]1C[C@H](Oc2cc(C(F)F)c(F)c3c2CNCC3)[C@@H](O)[C@H]1O`: in data set [22], the IC50 came to 1.1 nM. Moreover, in data set [23], the Vd came out at 3.8 L/kg. Also, the inhibition in vivo at 10 mg/kg in the data set with A-427 [24] amounted to 74.9%. The Kd on PRMT5/MEP50 complex [2] stood at 0.0114 nM. Further, the clearance in data set [25] is 40 mL/min/kg. The same compound came in with a bioavailability in data set [26] of 40%. In addition, the inhibition in vivo at 30 mg/kg with A-427 [27] was 101%. Moreover, the “inhibition (INH)” value in data set [28] was determined as 79.8%. In addition, in the data set on A-427 [29], the inhibition in vivo at 3 mg/kg stood at 52.1%.

By Ki is commonly meant a measure of affinity in units of concentration, obtained from inhibition or displacement. Regarding `Cc1cc2cc(C(=O)N(Cc3ccc(C(F)(F)F)cn3)[C@@H]3CCCc4[nH]ncc43)ccc2nc1N`, the Ki at PRMT5/MEP50 complex [30] is 0.05 nM. Further, the IC50 in the data set on HCT-116 worked out at 142 nM; in data set [31] it was 10 nM; in data set [32], 5 nM.

In the case of `Nc1ncnc2c1ccn2[C@@H]1O[C@H]([C@@H]2OCCc3cc(Cl)ccc32)[C@@H](O)[C@H]1O`, in the data set with U-87 MG, the IC50 amounted to 2.6 nM.
